In PubChem BioAssay (NCI):
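Five concentrations, 48 hours, 96-well plates. GI50 is the concentration that inhibits growth by half. TGI marks complete inhibition of growth.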

Assays:
Assay in all cases: growth of human tumour cells (NCI), 48 h
BT-549 breast = test system: BT-549 breast
CCRF-CEM leukemia = test system: CCRF-CEM leukemia
COLO 205 colon = test system: COLO 205 colon
K-562 leukemia = test system: K-562 leukemia
KM12 colon = test system: KM12 colon
MDA-MB-435 = test system: MDA-MB-435
OVCAR-5 ovarian = test system: OVCAR-5 ovarian
SF-539 CNS = test system: SF-539 CNS
UO-31 renal = test system: UO-31 renal
CAKI-1 renal = test system: CAKI-1 renal

| SMILES | GI50 (BT-549 breast) [µM] | TGI (BT-549 breast) [µM] | GI50 (CCRF-CEM leukemia) [µM] | TGI (CCRF-CEM leukemia) [µM] | GI50 (COLO 205 colon) [µM] | TGI (COLO 205 colon) [µM] | GI50 (K-562 leukemia) [µM] | TGI (K-562 leukemia) [µM] | GI50 (KM12 colon) [µM] | TGI (KM12 colon) [µM] | GI50 (MDA-MB-435) [µM] | TGI (MDA-MB-435) [µM] | GI50 (OVCAR-5 ovarian) [µM] | TGI (OVCAR-5 ovarian) [µM] | GI50 (SF-539 CNS) [µM] | TGI (SF-539 CNS) [µM] | GI50 (UO-31 renal) [µM] | TGI (UO-31 renal) [µM] | GI50 (CAKI-1 renal) [µM] | TGI (CAKI-1 renal) [µM] |
| --- | --- | --- | --- | --- | --- | --- | --- | --- | --- | --- | --- | --- | --- | --- | --- | --- | --- | --- | --- | --- |
| Cc1ccc(/C=C(/C#N)n2nnc3ncccc32)cc1 | 2.46 | 19.7 | 3.08 | > 100 | 2.25 | 10.5 | 0.545 | > 100 | 2.11 | 14.9 | 0.378 | 13.4 | 2.49 | 10.1 | 2.47 | 9.61 | 2.01 | 12.4 |  |  |
| N.N.N.N.N.N#Cc1nn[n-]n1.[Cl-].[Co+3] |  |  | > 100 | > 100 | > 100 | > 100 | > 100 | > 100 | > 100 | > 100 |  |  | > 100 | > 100 | > 100 | > 100 | > 100 | > 100 | > 100 | > 100 |
| CC(=O)n1nnc2ccc([N+](=O)[O-])cc21 |  |  |  | > 100 |  | > 100 |  | > 100 |  | > 100 |  |  |  | > 100 |  | > 100 |  | > 100 |  | > 100 |
| COC(=O)C(=O)C(C#N)c1cccc(Cl)c1 (centres undefined) |  |  |  | > 100 |  | > 100 |  | > 100 |  | > 100 |  |  |  | > 100 |  | > 100 |  | > 100 |  | > 100 |
| CCC1=C[C@@H]2CN(C1)Cc1c([nH]c3ccccc13)[C@@](C(=O)OC)(c1cc3c(cc1OC)N(C)[C@H]1[C@@](O)(C(=O)OC)[C@H](OC(C)=O)[C@]4(CC)C=CCN5CC[C@]31[C@@H]54)C2 | < 0.0107 | 8.82 | < 0.01 | 0.71 | < 0.01 | 0.0775 | < 0.01 | 18.9 |  |  |  |  | < 0.01 | 27.2 | < 0.01 | 0.0441 | 1.02 | 18.6 |  | 2.52 |
| Cn1nc(-c2ccccc2)c2c(/C=C/c3ccc(Cl)cc3)onc2c1=O |  |  |  | > 100 |  | > 100 |  | > 100 |  |  |  |  |  |  |  | 72.8 |  | 71.4 |  |  |
| N#CCCN(C1=NN(C(=O)CC(=O)Nc2ccc(Cl)cc2)C(c2ccccc2)C1)c1ccc(Cl)cc1 (centres undefined) |  |  |  | > 100 |  | > 100 |  | > 100 |  | > 100 |  |  |  | > 100 |  | > 100 |  | > 100 |  | > 100 |
| Cn1cnc([N+](=O)[O-])c1Sc1nc2ccccc2o1 |  |  |  | 12.8 |  | 3.4 |  | 11.3 |  | 20.5 |  |  |  | 19.4 |  | 24.1 |  | 24.8 |  | 6.19 |
| O=CC1CCC=CC1NC(=O)OCc1ccccc1 (centres undefined) |  |  |  | > 100 |  | > 100 |  | > 100 |  | > 100 |  |  |  | > 100 |  | 51.9 |  | > 100 |  | > 100 |
| COC1=CC(c2ccc[nH]2)=N/C1=C\c1[nH]c(C)c(C(=O)Oc2ccccc2)c1C | 0.384 | 4.2 | 0.0625 | > 100 | 0.345 | 1.43 | 0.292 | > 100 | 0.118 | 1.69 |  |  | 0.389 | 1.99 | 0.36 | 1.63 | 0.15 | 0.35 | 0.0679 |  |
| O=C(CCC(=O)Nc1ccc(Cl)cc1)CC(=O)c1ccc2ccccc2c1 |  |  |  | > 100 |  | > 100 |  | > 100 |  | > 100 |  |  |  | > 100 |  | > 100 |  | > 100 |  | > 100 |
| O=C(Nc1ccccc1)n1cc(-c2ccccn2)c(N2CCOCC2)n1 |  |  |  | > 100 |  | > 100 |  | > 100 |  | 62.7 |  |  |  |  |  | 57.6 |  | 92.8 |  | 49.7 |
| CN(C)CCCOc1ccc(/C=C2/CCC/C(=C/c3ccc(OCCCN(C)C)cc3)C2=O)cc1 |  |  |  | 3.84 |  | 3.2 |  | 1.24 |  | 2.93 |  |  |  | 0.644 |  | 3.02 |  | 3.34 |  |  |
| CC[O-].CC[O-].COc1ccc(C(=O)[CH-]C(C)=O)cc1OC.COc1ccc(C(=O)[CH-]C(C)=O)cc1OC.[Ti+4] |  |  | 27.8 | > 100 | > 100 | > 100 | > 100 | > 100 |  |  |  |  | 53.8 | > 100 | 38.9 | > 100 | 11.7 | 49.7 | 33 | 96.1 |
| CCC(C)C(=O)O[C@H]1C(=O)O[C@@H]2C[C@H]3C(C)=CC(=O)[C@@H](O)[C@]3(C)[C@H]3[C@@H](O)[C@H](O)[C@@]4(C)OC[C@]32[C@@H]14 (some centres undefined) |  |  |  |  |  | 0.278 |  | 0.214 |  | 0.138 |  | < 0.01 |  | 0.0942 |  | 0.0334 |  | 0.0859 |  |  |
| C/C=C(\C)c1cc(=O)c2c(C)cc3c(c2o1)C(OC)(OC(C)=O)c1c(O)c(C2CC(C)(N(C)C)C(OC(C)=O)C(C)O2)cc(C2CC(N(C)C)C(OC(C)=O)C(C)O2)c1C3=O (centres undefined) |  | 7.47 |  | 10.1 |  |  |  |  |  | 8.24 |  |  |  | 9.75 |  |  |  | 4.68 |  | 9.39 |
| Cc1cc2nc3c(=O)[nH]c(=O)nc-3n(CC(O)C(O)C(O)CO)c2cc1N (centres undefined) |  |  |  | > 100 |  | > 100 |  | > 100 |  | > 100 |  |  |  |  |  | > 100 |  | > 100 |  |  |
| O=C[C@]12CC=C3OC4OC5(CCCCC5)OC4[C@H]3[C@H]1C(=O)C=CC2=O (some centres undefined) |  |  |  | 9.3 |  |  |  |  |  | > 100 |  |  |  | > 100 |  | 13.4 |  | 40.8 |  | 74.6 |
| CCNC(=O)Oc1ccc(/C(=C(\C)c2ccc(Cl)cc2)c2ccc(OCCN(CC)CC)cc2)cc1 | 5.33 | 18.5 | 3.38 | 12.2 | 1.94 | 3.94 | 2.18 | 5.37 | 4.22 | 15.5 | 3.44 | 12.8 | 10.3 | 23.1 | 1.78 | 3.44 | 1.54 | 3.62 |  |  |
| O=c1c2ccccc2nc2n1CCc1c-2[nH]c2cc3c(cc12)OCO3 |  |  | > 25 | > 25 |  | > 25 |  | > 25 |  | > 25 |  | > 25 |  | > 25 |  | > 25 |  | > 25 |  |  |
